Measured values as given in US9364454B2, “Anti-inflammatory actions of neuroprotectin D1/protectin D1 and its natural stereoisomers” (The Brigham and Women's Hospital, Inc., priority 2005, dated 2016).
“Also recorded” adds a separate entry of the source. Read-outs that look alike come from different tables or passages of the source.

Columns and labels:
male FvB mice [1] = type: in vivo
Experimental: (§1) Five to seven week old male FvB mice (Charles River Laboratories) were housed in isolation cages under viral antibody-free conditions. Mice were fed a standard diet (Laboratory Rodent Diet 5001, PMI Nutrition International) that contained no less than 4.5% total fat with 0.26% omega-3 fatty acids and <0.01% C20:4. After Harvard Medical Area IRB approval (Protocol #02570), mice were sensitized with intraperitoneal injections of ovalbumin (OVA) (Grade III; Sigma Chemical Co.) (10 μg) plus 1 mg aluminum hydroxide (ALUM) (J.T. Baker Chemical Co.) as adjuvant in 0.2 ml PBS on days 0 and 7. On days 14, 15, 16 and 17, the mice received PD1 (2, 20 or 200 ng) (a product of biogenic synthesis (52)) or PBS with 1.6 mM CaCl2 and 1.6 mM MgCl2 (0.1 ml) by intravenous injection 30 min prior to an aerosol challenge containing either PBS or 6% OVA for 25 min/day. Matching experiments were performed with 20 ng PD1 prepared by total organic synthesis (62).
On day 18, 24 h after the last aerosol challenge, either airway responsiveness to aerosolized methacholine (0, 20, 50 and 75 mg, 10 sec) was measured, bilateral bronchoalveolar lavage (BAL) (2 aliquots of 1 ml PBS plus 0.6 mM EDTA) was performed or tissues were harvested for histological analysis. Lung resistance was measured using a Flexivent ventilator (SciReq). Resistance was measured as a function of time for each animal, and peak and average values for each dose of methacholine were recorded. […]
Murine lungs were fixed in 10% buffered formalin and paraffin embedded for hematoxylin and eosin and periodic acid Schiff staining (Sigma Chemical Co.). […] Three fields per slide were examined at 200× magnification for vessels, large airways and alveoli with EOS counted at 400× magnification in randomly assigned fields. […] Measurement of inflammatory mediators was determined in cell-free BAL fluid (BALF) (2000 g, 10 min) by sensitive and specific ELISAs, in tandem, for interleukin-5 (IL-5), IL-12, IL-13, PGD2 (R&D Systems), cysteinyl LTs, (Cayman Chemical Co.), and LXA4 (Neogen). […]

male FvB mice [2] = experiment: PD1 given after aeroallergen challenge (days 18-20), BAL on day 21; type: in vivo, mouse
Experimental: In select experiments, animals were sensitized and aeroallergen challenged for four days prior to receiving PD1 (20 ng) or PBS by intravenous injection (0.1 ml) on days 18, 19 and 20. On day 21, bilateral BAL was performed.
Murine lungs were fixed in 10% buffered formalin and paraffin embedded for hematoxylin and eosin and periodic acid Schiff staining (Sigma Chemical Co.). Tissue morphometry was performed by a member (K. Haley) of the Lung Histopathology Core Laboratory at Brigham and Women's Hospital who was blinded to the experimental conditions prior to histological analyses. Three fields per slide were examined at 200× magnification for vessels, large airways and alveoli with EOS counted at 400× magnification in randomly assigned fields. Vessels were identified by perivascular smooth muscle, and large airways were identified by at least ½ their diameter either cuboidal or columnar epithelia. Measurement of inflammatory mediators was determined in cell-free BAL fluid (BALF) (2000 g, 10 min) by sensitive and specific ELISAs, in tandem, for interleukin-5 (IL-5), IL-12, IL-13, PGD2 (R&D Systems), cysteinyl LTs, (Cayman Chemical Co.), and LXA4 (Neogen). Cells in BALF were resuspended in PBS, enumerated by hemocytometer, and concentrated onto microscope slides by cytocentrifuge (STATspin) (265 g). […]

FVB male mice [3] = experiment: Acute inflammatory exudates: zymosan A murine peritonitis (leukocyte infiltration); type: in vivo, mouse
Experimental: Peritonitis was carried out using 6-8 week-old FVB male mice (Charles River Laboratories) fed laboratory Rodent Diet 5001 (Purina Mills) that were anesthetized with isoflurane, and compounds to be tested were administered intraperitoneally. […] Each compound tested or vehicle alone was suspended in 1 μl ethanol and mixed in sterile saline (120 μl). After intraperitoneal injections (either 2 or 4 hours of acute inflammation), the mice were sacrificed in accordance with the Harvard Medical Area Standing Committee on Animals protocol no. 02570, and peritoneal lavages were collected rapidly and placed in an ice bath (4° C.) for enumeration, differential counts, and further analysis.

[4] = test system: human PMN transmigration across endothelial cells; experiment: Human PMN transmigration across HMEC monolayers, LTB4-induced; type: cell-based
Experimental: PMN were freshly isolated from whole blood obtained by venipuncture from healthy human donors (who denied taking medication for 2 weeks prior to donation; BWH protocol no. 88-02642) and anti-coagulated with acid citrate dextrose as in (40, 41). Briefly, plasma and mononuclear cells were removed by aspiration from the buffy coat after centrifugation (400 g; 20 min) at room temperature. Histopaque (density 1.077) was from Sigma-Aldrich (St. Louis, Mo.). RBCs were sedimented using 2% gelatin, and residual RBCs were removed by lysis in ice-cold NH4Cl buffer. The cell suspensions were >90% PMN as determined by light microscopic evaluation. PMN were suspended at 5×10^7 cells/ml in HBSS with 10 mM Hepes, pH 7.4, and without Ca^2+ or Mg^2+ (Sigma-Aldrich, St. Louis, Mo.). PMN were used within 2 hours of their isolation.
Human Microvascular Endothelial Cells (HMEC; a gift from Francisco Candal of the Centers for Disease Control, Atlanta, Ga.) were obtained as primary cultures. For preparation of experimental HMEC monolayers, confluent endothelial cells were grown on 0.33 cm^2 ring-supported polycarbonate filters (5 μm pore size; Costar Corp., Cambridge, Mass.) in the apical-to-basolateral direction. Cells were grown for ˜1 week prior to transmigration experiments.
Transmigration was conducted essentially as in ref. (41). PMN were incubated with either vehicle-containing buffer or compound for 15 minutes at 37° C. A chemotactic gradient was established by placing HMEC inserts that had been washed in HBSS with Ca^2+ and Mg^2+ (denoted +/+) in 10^−8M LTB4 in the lower chambers. Neutrophils (10^6 cells) were added to 50 μl HBSS +/+ in the upper chambers and cells were incubated at 37° C. for 90 min. Transmigrated PMN were quantified by assessing the PMN azurophilic marker myeloperoxidase and a calibration curve. PMN were lysed by the addition of Triton X-100 to a final concentration of 0.5%. The samples were acidified with citrate buffer (final concentration 100 mM, pH 4.2). An aliquot of each sample was added to an equal volume of ABTS solution (1 mM ABTS [2′-azino-bis(3-ethylbenzo-thiazoline-6-sulfonic acid)], 0.03% H2O2, 100 mM sodium citrate buffer, pH 4.2) in a 96-well plate. The resulting color was monitored using a plate reader at 405 nm and a calibration curve for cell number.

FVB male mice [5] = details: cited from earlier work
male FvB mice [6] = experiment: Airway responsiveness to aerosolized methacholine in OVA-sensitized/challenged mice; type: in vivo, mouse
Experimental: as §1
On day 18, 24 h after the last aerosol challenge, either airway responsiveness to aerosolized methacholine (0, 20, 50 and 75 mg, 10 sec) was measured, bilateral bronchoalveolar lavage (BAL) (2 aliquots of 1 ml PBS plus 0.6 mM EDTA) was performed or tissues were harvested for histological analysis. Lung resistance was measured using a Flexivent ventilator (SciReq). Resistance was measured as a function of time for each animal, and peak and average values for each dose of methacholine were recorded. No BAL or histological analysis was performed on those animals undergoing airway hyper-responsiveness or lipid extraction studies.

CC/C=C\C[C@H](O)\C=C/C=C/C=C/[C@H](O)C/C=C\C/C=C\CCC(=O)O [PD1, 10R,17S-dihydroxy-docosa-4Z,7Z,11E,13E,15Z,19Z-hexaenoic acid]
EOS and Lymphs in the peribronchial regions and airspaces (histology) (male FvB mice [1]; 2, 20 or 200 ng i.v., versus vehicle): substantially less EOS and Lymphs
EOS tissue infiltration around vessels and in large and peripheral airways (morphometry) (male FvB mice [1]; PD1 i.v. prior to challenge): significant decreases
EOS trafficking (male FvB mice [1]; as little as 2 ng of PD1): reduced
numbers of total leukocytes, Eos and Lymphs in BALFs (male FvB mice [2]; 20 ng iv once a day for three days after challenge, day 21): significant decrements
resolution of allergic airway inflammation (in words) (male FvB mice [2]; PD1 treatment after aeroallergen challenge): has the capacity to accelerate resolution of allergic airway inflammation; also recorded: promoted the resolution of airway inflammation; also recorded: promotes resolution of allergen-driven leukocytes; also recorded: markedly accelerated the resolution of airway inflammation
rank order of potency (FVB male mice [3]; 0.1 ng dose): Compound VI>>PD1>10S,17S-DT (the double dioxygenation product)>the Δ15-trans-PD1>>Compound V
activity on PMN infiltration (in words) (FVB male mice [3]; 1 ng/mouse dose): striking inhibition of PMN infiltration
PMN infiltration when given after initiation of inflammation (in words) (FVB male mice [3]; 1 ng/mouse i.p. 2 h after zymosan A, lavage at 4 h): diminished infiltration of PMN; also recorded: reduces PMN infiltration; also recorded: reduced PMN infiltration after initiation (2 h) of inflammation
inhibition of PMN infiltration (FVB male mice [3]; 1 ng/mouse, peritonitis): ~40%
inhibition of PMN infiltration (FVB male mice [3]; 10 ng and 100 ng doses (maintained)): ~40%
kind of joint anti-inflammatory action of PD1 and RvE1 (FVB male mice [3]; 10 ng/mouse i.p. of either or both, 2 h): additive rather than synergistic
PMN infiltration, PD1 and RvE1 administered together (in words) (FVB male mice [3]; 10 ng/mouse i.p., exudates at 2 h): reduced the infiltration of PMN
PMN infiltration (in words) (FVB male mice [3]; 10 ng/mouse, 4 h after injection (FIG. 9)): reduced PMN infiltration; also recorded: Statistically different from *zymosan A-injected mice
rank order of potency (FVB male mice [3]; 1-10 ng dose): PD1≈PD1 methyl ester>>Δ15-trans PD1>10S,17S-diHDHA (isomer I)
anti-inflammatory potency in vivo, PMN infiltration (in words) (FVB male mice [3]; dose range tested (FIG. 6), lavage at 2 h): dramatically reduced the infiltration of PMN into the peritoneum; also recorded: more potent than the dioxygenation product; also recorded: potent regulator of PMN infiltration in vivo
blocking of further PMN infiltration (FVB male mice [3]; given 2 h after zymosan A challenge): > 90%
recruitment of monocytes and lymphocytes to exudates (in words) (FVB male mice [3]; peritonitis, differential counts): increased the non-phlogistic recruitment of monocytes and lymphocytes; also recorded: regulated both monocyte and lymphocyte traffic
inhibition of PMN transmigration ([4]; 1.0 nM, in response to leukotriene B4): 30%
attenuation of human neutrophil transmigration ([4]; 10 nM, LTB4 10^-8 M, 90 min): ~50%
reduction of PMN transmigration ([4]; 10-100 nM, in vitro): 35-45%
highest degree of inhibition of neutrophil transmigration observed ([4]; HMEC monolayers, neutrophils from >5 separate donors, each experiment): ≤ 50%
effect on LTB4-induced PMN transmigration (in words) ([4]; compound 15 min, LTB4 10^-8 M 90 min): reduced PMN transmigration; also recorded: inhibited LTB4-induced PMN migration; also recorded: stereoselectively reduces PMN transmigration in vitro
inhibition of PMN infiltration (FVB male mice [5]; 100 ng/mouse, i.v., earlier experiments (ref 1)): ~40%
apparent maximal response, reduction of PMN infiltration (FVB male mice [5]; doses as low as 100 ng/mouse (ref 1)): ~50%
potency versus indomethacin in reducing PMN infiltration (FVB male mice [5]; i.v., earlier experiments (ref 1)): more potent than indomethacin
shape of dose response, protection on airway hyper-responsiveness (male FvB mice [6]; 2, 20, 200 ng): bell-shaped dose response with maximal protection
log ED200 for the mean airway resistance (male FvB mice [6]; 2, 20 and 200 ng, compared with vehicle): significantly increased
airway hyper-responsiveness: peak and average lung resistance in response to methacholine (male FvB mice [6]; PD1 0-200 ng i.v. prior to OVA challenge): decreased both peak and average lung resistance; also recorded: dampened; also recorded: reduces airway hyper-responsiveness
lung elastance or compliance (male FvB mice [6]; following allergen challenge (data not shown)): no significant changes
airway responses of control animals that received PBS rather than allergen (male FvB mice [6]; mouse, in vivo): no significant impact
